One may read the IC50 as the concentration at which inhibition is half-maximal.

Here are results for 10 molecules from patent US9592221B2, “Antibacterial agents: aryl myxopyronin derivatives” (priority 2012, dated 2017).

Assay [1] relates to methicillin-resistant Staphylococcus aureus (MRSA) strain BAA-1707 (USA-400; MW2). Nature of the assay: MIC, spiral gradient endpoint assay, MRSA BAA-1707. The settings on record: Staphylococcus aureus; read-out: MIC S. aureus MRSA BAA-1707. The format is cell-based.
For assay [2], the system named is Bacillus anthracis Vollum 1b. Nature of the assay: microbe, parasite or virus in culture. It is filed as cell-based. The settings on record: Bacillus anthracis, VOLLUM1B, read-out: MIC B. anthracis Vollum-1b.
Assay [3] concerns Francisella tularensis SCHU4. The assay can be described thus: microbe, parasite or virus in culture. Conditions: Francisella tularensis, SCHU4, read-out: MIC F. tularensis SCHU4. The format is cell-based.
Assay [4] deals with Brucella melitensis 16M. The assay can be described thus: microbe, parasite or virus in culture. It is filed as cell-based. Conditions: Brucella melitensis, 16M, read-out: MIC B. melitensis 16M.
In assay [5] the test system is rifampin-resistant Staphylococcus aureus (RRSA) strain ATCC 12600-Rif (H526N). The assay can be described thus: MIC, spiral gradient endpoint assay, RRSA 12600-Rif. It is filed as cell-based. Conditions: Staphylococcus aureus, ATCC12600; read-out: MIC S. aureus RRSA 12600-Rif.
Assay [6] addresses E. coli RNA polymerase σ^70 holoenzyme (Escherichia coli, UniProt P0A8T7+P0A8V2). The assay can be described thus: Fluorescence-detected RNA polymerase assay, E. coli RNA polymerase. The format is biochemical. Conditions: read-out: IC50 E. coli RNAP.
Assay [7] concerns Mycobacterium tuberculosis H37Rv. The assay can be described thus: MIC, microplate Alamar Blue assay, M. tuberculosis. The format is cell-based. In general terms: The colour change of resazurin is a common sign of viable cells or microbes.
The test system of assay [8] is Burkholderia pseudomallei Human/Blood/OH/US/1994. Nature of the assay: microbe, parasite or virus in culture. It is filed as cell-based. Conditions: Burkholderia pseudomallei, read-out: MIC B. pseudomallei Human/Blood/OH.
The test system of assay [9] is Burkholderia mallei CHN7. Nature of the assay: microbe, parasite or virus in culture. The format is cell-based. The settings on record: Burkholderia mallei, CHN7, read-out: MIC B. mallei CHN7.
Assay [10] concerns methicillin-resistant Staphylococcus aureus (MRSA) strain BAA-1717 (USA-300). Nature of the assay: MIC, spiral gradient endpoint assay, MRSA BAA-1717. It is filed as cell-based. The settings on record: Staphylococcus aureus; read-out: MIC S. aureus MRSA BAA-1717.
The test system of assay [11] is Escherichia coli D21f2tolC. The assay can be described thus: MIC, spiral gradient endpoint assay, E. coli D21f2tolC. The settings on record: Escherichia coli, D21F2TOLC, read-out: MIC E. coli D21f2toIC. It is filed as cell-based.
The test system of assay [12] is Staphylococcus aureus ATCC 12600. The assay can be described thus: MIC, spiral gradient endpoint assay, S. aureus ATCC 12600. The format is cell-based. The settings on record: ATCC12600; Staphylococcus aureus ATCC 12600.
The subject of assay [13] is Acinetobacter baumannii ATCC 19606. Nature of the assay: MIC, spiral gradient endpoint assay, A. baumannii. The format is cell-based. Conditions: ATCC19606; Acinetobacter baumannii ATCC 19606.
Assay [14] deals with Yersinia pestis C092. Nature of the assay: microbe, parasite or virus in culture. Conditions: Yersinia pestis, C092, read-out: MIC Y. pestis C092. The format is cell-based.
For assay [15], the target named is M. tuberculosis RNA polymerase core enzyme, M. tuberculosis σ^A (Mycobacterium tuberculosis, UniProt P9WGY7+P9WGY9). The assay can be described thus: Fluorescence-detected RNA polymerase assay, M. tuberculosis RNA polymerase. Conditions: read-out: IC50 M. tuberculosis RNAP. The format is biochemical.
Assay [16] addresses S. aureus RNA polymerase core enzyme, S. aureus σ^A (Staphylococcus aureus, UniProt P47768+Q2G0N5). The assay can be described thus: Fluorescence-detected RNA polymerase assay, S. aureus RNA polymerase. It is filed as biochemical. Conditions: read-out: IC50 S. aureus RNAP.

Chain of E. coli RNA polymerase σ^70 holoenzyme (P0A8T7 whole entry): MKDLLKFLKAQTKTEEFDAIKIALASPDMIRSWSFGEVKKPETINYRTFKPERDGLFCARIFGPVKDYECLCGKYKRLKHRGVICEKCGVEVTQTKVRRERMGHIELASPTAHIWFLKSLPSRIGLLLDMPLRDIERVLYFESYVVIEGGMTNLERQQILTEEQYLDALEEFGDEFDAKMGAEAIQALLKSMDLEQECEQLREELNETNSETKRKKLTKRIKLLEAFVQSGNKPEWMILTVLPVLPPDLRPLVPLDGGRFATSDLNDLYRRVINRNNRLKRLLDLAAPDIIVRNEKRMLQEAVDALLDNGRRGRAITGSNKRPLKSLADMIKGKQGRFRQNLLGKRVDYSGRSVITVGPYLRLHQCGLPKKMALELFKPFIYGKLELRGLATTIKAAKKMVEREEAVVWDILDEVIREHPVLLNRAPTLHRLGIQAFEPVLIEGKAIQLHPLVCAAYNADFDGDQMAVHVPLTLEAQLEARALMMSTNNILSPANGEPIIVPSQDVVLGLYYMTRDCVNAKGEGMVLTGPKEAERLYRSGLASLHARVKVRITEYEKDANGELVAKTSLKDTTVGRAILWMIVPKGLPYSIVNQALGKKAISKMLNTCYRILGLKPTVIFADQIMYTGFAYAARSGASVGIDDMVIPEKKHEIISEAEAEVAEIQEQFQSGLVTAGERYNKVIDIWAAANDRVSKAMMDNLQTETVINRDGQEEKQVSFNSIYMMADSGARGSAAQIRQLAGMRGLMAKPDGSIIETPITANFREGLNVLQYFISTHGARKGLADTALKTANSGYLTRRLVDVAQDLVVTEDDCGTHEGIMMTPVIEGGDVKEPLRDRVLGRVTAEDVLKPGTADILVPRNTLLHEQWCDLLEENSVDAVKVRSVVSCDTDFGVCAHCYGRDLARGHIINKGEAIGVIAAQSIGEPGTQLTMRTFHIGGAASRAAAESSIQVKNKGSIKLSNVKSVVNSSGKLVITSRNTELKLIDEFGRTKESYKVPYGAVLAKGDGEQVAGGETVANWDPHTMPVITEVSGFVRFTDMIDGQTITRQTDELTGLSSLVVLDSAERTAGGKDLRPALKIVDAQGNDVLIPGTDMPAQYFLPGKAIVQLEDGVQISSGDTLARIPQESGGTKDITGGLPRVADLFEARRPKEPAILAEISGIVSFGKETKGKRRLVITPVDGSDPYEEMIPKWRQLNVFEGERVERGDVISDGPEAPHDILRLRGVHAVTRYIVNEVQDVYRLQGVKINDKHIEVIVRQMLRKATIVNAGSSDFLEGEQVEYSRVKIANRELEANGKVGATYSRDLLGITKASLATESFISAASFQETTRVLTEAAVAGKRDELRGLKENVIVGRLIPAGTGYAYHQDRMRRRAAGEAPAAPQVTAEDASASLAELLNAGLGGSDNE
Chain of E. coli RNA polymerase σ^70 holoenzyme (P0A800 whole entry, further chain): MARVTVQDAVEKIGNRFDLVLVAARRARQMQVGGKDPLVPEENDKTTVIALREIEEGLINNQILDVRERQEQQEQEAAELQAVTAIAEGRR
Chain of E. coli RNA polymerase σ^70 holoenzyme (P0A8V2 whole entry): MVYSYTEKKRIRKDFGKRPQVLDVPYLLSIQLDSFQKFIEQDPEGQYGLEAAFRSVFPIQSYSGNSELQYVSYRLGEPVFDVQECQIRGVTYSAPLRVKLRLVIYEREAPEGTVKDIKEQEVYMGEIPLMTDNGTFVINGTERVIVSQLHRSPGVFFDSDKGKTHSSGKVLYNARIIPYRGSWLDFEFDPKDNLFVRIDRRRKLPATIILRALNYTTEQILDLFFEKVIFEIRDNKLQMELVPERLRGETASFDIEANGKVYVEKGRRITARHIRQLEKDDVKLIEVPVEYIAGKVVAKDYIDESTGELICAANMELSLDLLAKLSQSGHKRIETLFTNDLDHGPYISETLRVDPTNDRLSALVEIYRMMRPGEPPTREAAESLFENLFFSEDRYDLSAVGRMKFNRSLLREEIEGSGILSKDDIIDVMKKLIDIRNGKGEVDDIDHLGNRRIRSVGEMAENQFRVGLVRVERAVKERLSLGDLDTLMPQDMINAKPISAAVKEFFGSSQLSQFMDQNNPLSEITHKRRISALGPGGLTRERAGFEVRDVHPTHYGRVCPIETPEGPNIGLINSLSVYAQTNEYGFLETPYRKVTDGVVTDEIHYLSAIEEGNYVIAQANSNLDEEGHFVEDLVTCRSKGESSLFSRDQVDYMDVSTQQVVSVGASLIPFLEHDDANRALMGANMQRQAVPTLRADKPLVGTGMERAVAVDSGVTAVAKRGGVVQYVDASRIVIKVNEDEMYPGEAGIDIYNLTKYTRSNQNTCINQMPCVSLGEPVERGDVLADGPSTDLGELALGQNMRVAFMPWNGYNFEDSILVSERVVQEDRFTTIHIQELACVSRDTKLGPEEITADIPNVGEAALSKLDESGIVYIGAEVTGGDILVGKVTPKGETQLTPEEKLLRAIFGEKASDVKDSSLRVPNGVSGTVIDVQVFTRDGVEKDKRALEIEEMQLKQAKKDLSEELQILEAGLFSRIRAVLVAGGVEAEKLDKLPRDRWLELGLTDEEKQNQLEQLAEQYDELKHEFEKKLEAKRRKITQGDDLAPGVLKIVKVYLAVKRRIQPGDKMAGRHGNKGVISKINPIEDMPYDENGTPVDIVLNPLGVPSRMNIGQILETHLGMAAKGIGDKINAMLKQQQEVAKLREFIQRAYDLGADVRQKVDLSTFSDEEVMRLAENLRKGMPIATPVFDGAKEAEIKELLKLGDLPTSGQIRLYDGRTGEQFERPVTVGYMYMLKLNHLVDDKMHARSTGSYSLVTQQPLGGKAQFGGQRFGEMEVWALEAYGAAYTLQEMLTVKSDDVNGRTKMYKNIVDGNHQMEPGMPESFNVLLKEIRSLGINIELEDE
Chain of E. coli RNA polymerase σ^70 holoenzyme (P00579 whole entry, further chain): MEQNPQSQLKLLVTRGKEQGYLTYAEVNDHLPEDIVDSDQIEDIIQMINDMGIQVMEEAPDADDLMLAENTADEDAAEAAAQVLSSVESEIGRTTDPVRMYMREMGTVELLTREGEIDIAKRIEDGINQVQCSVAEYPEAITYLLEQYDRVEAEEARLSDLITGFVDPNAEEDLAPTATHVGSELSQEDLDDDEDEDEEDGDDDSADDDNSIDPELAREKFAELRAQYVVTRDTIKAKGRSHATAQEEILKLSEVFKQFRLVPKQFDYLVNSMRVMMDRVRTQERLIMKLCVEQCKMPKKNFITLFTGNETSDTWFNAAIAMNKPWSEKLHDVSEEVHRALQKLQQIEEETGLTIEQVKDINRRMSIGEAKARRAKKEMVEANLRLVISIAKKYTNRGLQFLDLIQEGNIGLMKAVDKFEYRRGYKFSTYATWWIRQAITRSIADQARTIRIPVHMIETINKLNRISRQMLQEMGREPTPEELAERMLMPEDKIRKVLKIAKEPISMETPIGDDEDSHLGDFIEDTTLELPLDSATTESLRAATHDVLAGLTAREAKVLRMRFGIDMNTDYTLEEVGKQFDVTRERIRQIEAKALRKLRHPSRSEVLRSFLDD
Chain of E. coli RNA polymerase σ^70 holoenzyme (P0A7Z4 whole entry, further chain): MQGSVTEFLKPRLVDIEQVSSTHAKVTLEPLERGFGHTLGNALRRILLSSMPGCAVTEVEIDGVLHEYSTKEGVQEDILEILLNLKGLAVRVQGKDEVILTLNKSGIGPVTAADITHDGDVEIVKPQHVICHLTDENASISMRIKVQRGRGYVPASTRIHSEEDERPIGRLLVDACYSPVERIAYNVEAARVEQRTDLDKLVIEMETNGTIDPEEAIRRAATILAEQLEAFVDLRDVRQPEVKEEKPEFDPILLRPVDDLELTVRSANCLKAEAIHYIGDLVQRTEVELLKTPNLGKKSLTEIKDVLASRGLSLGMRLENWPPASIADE

`COC(=O)N/C=C/CCC(C)c1cc(O)c(C(=O)C(C)=Cc2ccc(OC(C)C)cc2)c(=O)o1` (mixture of isomers) [APY66, methyl (E)-5-(4-hydroxy-5-((E/Z)-3-(4-isopropoxyphenyl)-2-methylacryloyl)-6-oxo-6H-pyran-2-yl)hex-1-enylcarbamate]: the MIC in assay [1] was 2 µg/mL; in assay [2] it was 10 µg/mL; in assay [3], greater than 50 µg/mL; in assay [4], 10 µg/mL; in assay [5], 3 µg/mL; in assay [7], 6 µg/mL. The MIC in assay [8] was greater than 50 µg/mL; in [9] it was greater than 50 µg/mL; in assay [10] it was 2 µg/mL; in [11], 0.8 µg/mL; in [12], 2 µg/mL; in [13], greater than 40 µg/mL. Besides, the IC50 in [6] is 1000 nM.

In the case of `CCCCc1ccc(C=C(C)C(=O)c2c(O)cc(C(C)CC/C=C/NC(=O)OC)oc2=O)cc1` (mixture of isomers) [APY41, methyl (E)-5-(3-((E/Z)-3-(4-butylphenyl)-2-methylacryloyl)-4-hydroxy-2-oxo-2H-pyran-6-yl)hex-1-enylcarbamate], the MIC in assay [1] came out at 0.6 µg/mL; in assay [2], 2 µg/mL; in assay [3] it was 6 µg/mL; in assay [14] it was 30 µg/mL; in [4], 0.8 µg/mL; in assay [5], 0.9 µg/mL. Also, the MIC in assay [7] was 3 µg/mL; in [8], 10 µg/mL; in assay [9], 6 µg/mL; in assay [10], 0.6 µg/mL; in [11], less than 0.2 µg/mL; in [12] it was 0.8 µg/mL. In addition, the MIC in assay [13] is greater than 40 µg/mL. Besides, the 50% inhibitory concentration (IC50) in assay [6] turned out to be 8 nM.

`COC(=O)N/C=C/CCC(C)c1cc(O)c(C(=O)C(C)=Cc2ccc(CCC(C)C)cc2)c(=O)o1` (mixture of isomers) [APY73, methyl (E)-5-(4-hydroxy-5-((E/Z)-3-(4-isopentylphenyl)-2-methylacryloyl)-6-oxo-6H-pyran-2-yl)hex-1-enylcarbamate]: the MIC in [1] turned out to be 1 µg/mL; in assay [2], 2 µg/mL; in [3], 10 µg/mL; in assay [4], 3 µg/mL; in assay [5], 2 µg/mL; in assay [8], 50 µg/mL. The MIC in assay [9] was 50 µg/mL; in assay [10], 1 µg/mL; in assay [11], 0.3 µg/mL; in [12], 0.6 µg/mL; in [13], greater than 40 µg/mL. In [6], the IC50 is 40 nM.

Take `C=CCCCCc1ccc(C=C(C)C(=O)c2c(O)cc(C(C)CC/C=C/NC(=O)OC)oc2=O)s1` (mixture of isomers) [APY29, methyl (E)-5-(3-((E/Z)-3-(5-(hex-5-enyl)thiophen-2-yl)-2-methylacryloyl)-4-hydroxy-2-oxo-2H-pyran-6-yl)hex-1-enylcarbamate]: the MIC in [2] is 3 µg/mL; in assay [3], 10 µg/mL; in assay [14] it was 10 µg/mL; in [4] it was 0.8 µg/mL; in assay [7], 30 µg/mL; in [8], 10 µg/mL. Besides, the MIC in [9] came to 3 µg/mL; in [11], 0.3 µg/mL; in assay [12], 4 µg/mL; in assay [13], 30 µg/mL. In addition, the half-maximal inhibitory concentration (IC50) in assay [15] was 500 nM; in assay [6], 40 nM; in assay [16], 90 nM.

As for `CCCCCCc1csc(C=C(C)C(=O)c2c(O)cc(C(C)CC/C=C/NC(=O)OC)oc2=O)c1C` (mixture of isomers) [APY27, methyl (E)-5-(3-((E/Z)-3-(4-hexyl-3-methylthiophen-2-yl)-2-methylacryloyl)-4-hydroxy-2-oxo-2H-pyran-6-yl)hex-1-enylcarbamate], the MIC in assay [2] is 3 µg/mL; in assay [3], 3 µg/mL; in assay [14], greater than 50 µg/mL; in assay [4], 2 µg/mL; in assay [7] it was 10 µg/mL; in assay [8], 50 µg/mL. The MIC in assay [9] was determined as 6 µg/mL; in [11] it was 0.3 µg/mL; in assay [12], 6 µg/mL; in assay [13], 20 µg/mL. Also, the IC50 in assay [15] came out at 1000 nM; in [6], 10 nM; in assay [16], 100 nM.

For `COC(=O)N/C=C/CCC(C)c1cc(O)c(C(=O)C(C)=Cc2ccc(CCC(C)C)s2)c(=O)o1` (mixture of isomers) [APY31, methyl (E)-5-(4-hydroxy-3-((E/Z)-3-(5-isopentylthiophen-2-yl)-2-methylacryloyl)-2-oxo-2H-pyran-6-yl)hex-1-enylcarbamate], the MIC in assay [2] worked out at 0.4 µg/mL; in assay [3] it was 6 µg/mL; in [14], 10 µg/mL; in assay [4], 0.8 µg/mL; in assay [7] it was 3 µg/mL; in [8] it was 6 µg/mL. For the same molecule, the MIC in [9] was 2 µg/mL; in assay [11], less than 0.3 µg/mL; in assay [12] it was 0.4 µg/mL; in assay [13], 6 µg/mL. The IC50 came to 20 nM in assay [15], 10 nM in [6] and 50 nM in assay [16].

Regarding `CCCCCCc1coc(C=C(C)C(=O)c2c(O)cc(C(C)CC/C=C/NC(=O)OC)oc2=O)c1` (mixture of isomers) [APY19, methyl (E)-5-(3-((E/Z)-3-(4-hexylfuran-2-yl)-2-methylacryloyl)-4-hydroxy-2-oxo-2H-pyran-6-yl)hex-1-enylcarbamate], the MIC in [2] worked out at 2 µg/mL; in assay [3], 6 µg/mL; in assay [14], 6 µg/mL; in assay [4], 0.4 µg/mL; in assay [7], 6 µg/mL; in assay [8] it was 3 µg/mL. Further, the MIC in assay [9] stood at 0.8 µg/mL; in [11], 0.1 µg/mL; in [12] it was 2 µg/mL; in assay [13], 10 µg/mL. In addition, the IC50 in [15] is 400 nM; in assay [6] it was 7 nM; in assay [16] it was 30 nM.

On to `CCCCc1ccc2oc(C=C(C)C(=O)c3c(O)cc(C(C)CC/C=C/NC(=O)OC)oc3=O)cc2c1` (mixture of isomers) [APY25, methyl (E)-5-(3-((E/Z)-3-(5-butylbenzofuran-2-yl)-2-methylacryloyl)-4-hydroxy-2-oxo-2H-pyran-6-yl)hex-1-enylcarbamate], for which the MIC came to 0.2 µg/mL in [2]; 3 µg/mL in assay [3]; 30 µg/mL in assay [14]; 0.8 µg/mL in assay [4]; 6 µg/mL in assay [7]; 6 µg/mL in [8]. For the same molecule, the MIC was 2 µg/mL in assay [9], 0.3 µg/mL in assay [11], 3 µg/mL in assay [12] and greater than 40 µg/mL in assay [13]. For the same molecule, the IC50 stood at 600 nM in assay [15], 10 nM in assay [6] and 70 nM in assay [16].

`CCCCCCc1ccc(C=C(C)C(=O)c2c(O)cc(C(C)CC/C=C/NC(=O)OC)oc2=O)cc1` (mixture of isomers) [APY33, methyl (E)-5-(3-((E/Z)-3-(4-hexylphenyl)-2-methylacryloyl)-4-hydroxy-2-oxo-2H-pyran-6-yl)hex-1-enylcarbamate]: the MIC in assay [2] was 2 µg/mL; in assay [3] it was 3 µg/mL; in [14], 6 µg/mL; in [4] it was 0.4 µg/mL; in [7] it was 6 µg/mL; in [8] it was 6 µg/mL. The MIC in assay [9] stood at 2 µg/mL; in assay [11] it was 0.3 µg/mL; in assay [12] it was 2 µg/mL; in assay [13], 20 µg/mL. In addition, the half-inhibitory concentration (IC50) in assay [15] came out at 400 nM; in assay [6] it was 8 nM; in assay [16], 10 nM.

For `CCCCCCc1csc(C=C(C)C(=O)c2c(O)cc(C(C)CC/C=C/NC(=O)OC)oc2=O)c1` (mixture of isomers) [APY18, methyl (E)-5-(3-((E/Z)-3-(4-hexylthiophen-2-yl)-2-methylacryloyl)-4-hydroxy-2-oxo-2H-pyran-6-yl)hex-1-enylcarbamate], the MIC in assay [2] was found to be 2 µg/mL; in [3] it was 3 µg/mL; in assay [14], 6 µg/mL; in assay [4], 0.8 µg/mL; in assay [7], 10 µg/mL; in assay [8] it was 6 µg/mL. The MIC amounted to 2 µg/mL in [9], 0.07 µg/mL in assay [11], 4 µg/mL in [12] and 4 µg/mL in assay [13]. Besides, the values for the half-inhibitory concentration (IC50) in [15], in assay [6] and in assay [16] were 600 nM, 7 nM and 70 nM, respectively.
